According to patent US7138421B2, “Anti-androgenic pyrrolidines with tumor-inhibiting action” (Schring Aktiengesellschaft, priority 2003, dated 2006):
pIC50: −log10 of the molar value. Where two headings read alike, the source gives them in different places.

Assays:
LNCaP cells = experiment: Inhibition of the proliferation of LNCaP cells (crystal violet assay); format: cell-based, human; conditions: for inhibition at 1 µM / pIC50: Homo sapiens, LNCaP; for pIC50: 7 to 8 days; for antiproliferative action (in words): LNCaP cells
Method: For the proliferation assay, 6000 LNCaP cells/well (Horoszewicz et al. Cancer Res. 1983, 43, 1809–1817) in a microtiter plate (96-well) in 50 μl of RPMI1640 medium are grown with 5% CCS and cultivated as in Model 1. After 24 hours, the cells receive 50 μl of 2×-concentrated test substance, diluted in culture medium. The solvent concentration is 0.5% DMSO. After 4 days, the cells receive another 100 μl of 1×-concentrated test substance, diluted in culture medium. After 7 to 8 days, the proliferation rate of the cells is determined by means of crystal violet assay (Gillies et al. Anal. Biochem. 1986, 159, 109–113). To determine the antagonism, the substance treatment is performed in the presence of […] of R1881 (1:1000 dilution of ethanolic solution). Control cells receive only 0.5% DMSO. For the agonism, the cells are treated only with test substance (without R1881).

seminal vesicles = experiment: Anti-androgenic action on testosterone-stimulated growth of the seminal vesicles of castrated mice; format: in vivo, mouse; conditions: 7 days, castrated mice with testosterone propionate
Method: The function and the size of accessory reproductive glands (prostate and seminal vesicles) depend on androgens. In castrated animals, a growth of these organs is induced by the administration of androgen. Simultaneous treatment with anti-androgens inhibits this growth in a dose-dependent manner. For the examination of test substances, the mice were castrated. On the same day, treatment with testosterone propionate (0.03 mg/mouse) and the test substances (1× daily 10 or 30 mg/kg p.o. in benzyl benzoate-castor oil or ethanol/peanut oil (10:90)) was formulated. The treatment was carried out over 7 days and at the end of the test, the weights of the seminal vesicles and prostate were determined. The inhibition of the seminal vesicle growth, in percent, was calculated in reference to the control groups (with and without testosterone). As a reference substance, cyproterone acetate (30 mg/kg s.c. and p.o.) was used.

androgen receptor = biological target: T1, androgen receptor (Homo sapiens, UniProt P10275, T878A); format: cell-based
T1 construct: Destabilization of AR in LNCaP Cells by Test Substances; endogenous in cells; host or cells: LNCaP (human prostate cell line)
T1 sequence (P10275 1-920 T878A): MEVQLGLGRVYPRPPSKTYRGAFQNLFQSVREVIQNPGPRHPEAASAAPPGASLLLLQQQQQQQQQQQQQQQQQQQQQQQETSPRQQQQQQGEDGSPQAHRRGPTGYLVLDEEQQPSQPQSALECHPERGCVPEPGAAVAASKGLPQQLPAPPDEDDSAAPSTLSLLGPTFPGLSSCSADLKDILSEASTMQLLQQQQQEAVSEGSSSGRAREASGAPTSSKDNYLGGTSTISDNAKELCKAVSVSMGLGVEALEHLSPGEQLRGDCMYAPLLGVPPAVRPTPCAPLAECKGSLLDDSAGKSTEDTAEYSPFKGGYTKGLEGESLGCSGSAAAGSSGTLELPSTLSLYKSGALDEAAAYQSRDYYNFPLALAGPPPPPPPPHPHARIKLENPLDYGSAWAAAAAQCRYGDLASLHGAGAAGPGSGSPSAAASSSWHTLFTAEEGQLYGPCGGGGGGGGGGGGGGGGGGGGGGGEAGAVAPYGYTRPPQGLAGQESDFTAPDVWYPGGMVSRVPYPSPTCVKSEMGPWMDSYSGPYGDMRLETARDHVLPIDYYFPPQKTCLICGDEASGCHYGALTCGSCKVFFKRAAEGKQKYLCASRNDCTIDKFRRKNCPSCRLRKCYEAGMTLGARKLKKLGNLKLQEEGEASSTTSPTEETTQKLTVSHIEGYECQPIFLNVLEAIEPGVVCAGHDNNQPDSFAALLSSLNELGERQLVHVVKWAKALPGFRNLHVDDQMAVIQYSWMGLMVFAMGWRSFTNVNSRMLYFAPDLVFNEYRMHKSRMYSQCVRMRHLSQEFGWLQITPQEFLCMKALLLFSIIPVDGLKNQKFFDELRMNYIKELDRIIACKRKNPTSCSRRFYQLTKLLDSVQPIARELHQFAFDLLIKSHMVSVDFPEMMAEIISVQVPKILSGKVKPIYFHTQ

[1] = 1 μM test substance, compared to cell growth in the presence of 0.1 nmol of R1881, read-out: % Inhibition at 1 μM
[2] = read-out: IC50 inhibition of the proliferation of LNCaP cells, in the presence of 0.1 nmol of R1881
[3] = LNCaP cells, 48 h, 1 μM, % of DMSO control
[4] = LNCaP cells, 48 h, 10 μM, % of DMSO control
[5] = in the presence of 0.1 nmol of R1881, read-out: IC50 inhibition of the proliferation of LNCaP cells

Structure (SMILES)	inhibition at 1 µM (LNCaP cells; [1])	pIC50 (LNCaP cells; [2])	AR Content at 1 μM (androgen receptor; [3])	pIC50 (LNCaP cells; [5])	further results
CC(O)(CS(=O)(=O)c1ccc(F)cc1)C(=O)Nc1ccc(C#N)c(C(F)(F)F)c1 (centres unmarked) [Bicalutamide, N-[4-Cyano-3-(trifluoromethyl)phenyl]-3-[(4-fluorophenyl)sulfonyl]-2-hydroxy-2-methylpropanamide, reference compound]	85%				% Inhibition of MSB Growth (seminal vesicles; 30 mg/kg p.o., 1× daily): 82%; % Inhibition of MSB Growth (seminal vesicles; 30 mg/kg s.c.): 86%
C[C@@H]1CC[C@H](C)N1CCCCCCCCN1C(=S)N(c2ccc(C#N)c(C(F)(F)F)c2)C(=O)C1(C)C [Example 37, 4-[3-[8-[(2R,5S)-rel-2,5-Dimethylpyrrolidin-1-yl]octyl]-4,4-dimethyl-5-oxo-2-thioxoimidazolidin-1-yl]-2-(trifluoromethyl)benzonitrile]	99%	7.96	57%		
CC1(C)C(=O)N(c2ccc(C#N)c(C(F)(F)F)c2)C(=S)N1CCO [Example 71 USRe 35956, 4-[3-(2-Hydroxyethyl)-4,4-dimethyl-5-oxo-2-thioxoimidazolidin-1-yl]-2-(trifluoromethyl)benzonitrile, reference compound]	9%	< 5.00	164%		antiproliferative action (in words) (LNCaP cells): little or no antiproliferative action; AR Content at 10 μM (androgen receptor; [4]): 191%
CC1(C)C[C@@H](CN2CCCC2)N(CCCCCCCN2CCN(c3ccc(C#N)c(C(F)(F)F)c3)C2=S)C1=O [Example 56, 4-[3-[7-[(2S)-4,4-Dimethyl-5-oxo-2-(pyrrolidin-1-ylmethyl)pyrrolidin-1-yl]heptyl]-2-thioxoimidazolidin-1-yl]-2-(trifluoromethyl)benzonitrile]			24%		
CC(C)(O)[C@@H]1CCCN1CCCCCCCCN1C(=S)N(c2ccc(C#N)c(C(F)(F)F)c2)C(=O)C1(C)C [Example 40, 4-[3-[8-[(2S)-2-(1-Hydroxy-1-methylethyl)pyrrolidin-1-yl]octyl]-4,4-dimethyl-5-oxo-2-thioxoimidazolidin-1-yl]-2-(trifluoromethyl)benzonitrile]	118%	7.96	40%		
COC[C@H]1CCCN1CCCCCCCCN1C(=S)N(c2ccc(C#N)c(C(F)(F)F)c2)C(=O)C1(C)C [Example 18, 4-[3-[8-[(2R)-2-(Methoxymethyl)pyrrolidin-1-yl]octyl]-4,4-dimethyl-5-oxo-2-thioxoimidazolidin-1-yl]-2-(trifluoromethyl)benzonitrile]	103%			7.96	
CC1(C)C(=O)N(c2ccc(C#N)c(C(F)(F)F)c2)C(=S)N1CCCCO [Example 77 USRe 35956, 4-[3-(4-Hydroxybutyl)-4,4-dimethyl-5-oxo-2-thioxoimidazolidin-1-yl]-2-(trifluoromethyl)benzonitrile, reference compound]		< 5.00			inhibition at 1 µM (LNCaP cells; read-out: % Inhibition at 1 μM, 1 μM test substance, compared to cell growth in the presence of 0.1 nmol of R1881): 34%; antiproliferative action (in words) (LNCaP cells): little or no antiproliferative action; AR Content at 1 μM (androgen receptor): 230%; AR Content at 10 μM (androgen receptor): 180%
CC(C)(O)[C@@H]1CCCN1CCCCCCCN1C(=S)N(c2ccc(C#N)c(C(F)(F)F)c2)C(=O)C1(C)C [Example 39, 4-[3-[7-[(2S)-2-(1-Hydroxy-1-methylethyl)pyrrolidin-1-yl]heptyl]-4,4-dimethyl-5-oxo-2-thioxoimidazolidin-1-yl]-2-(trifluoromethyl)benzonitrile]	108%			7.39	
CC1(C)C(=O)N(c2ccc(C#N)c(C(F)(F)F)c2)C(=S)N1CCCCCCCN1CC[C@H](C(N)=O)C1 [Example 50, (S)-1-[7-[3-[4-Cyano-3-(trifluoromethyl)phenyl]-5,5-dimethyl-4-oxo-2-thioxoimidazolidin-1-yl]heptyl]pyrrolidine-4-carboxamide]	110%			7.82	
CC1(C)C(=O)N(c2ccc(C#N)c(C(F)(F)F)c2)C(=S)N1CCCCCCCN1CC[C@@H](C(N)=O)C1 [Example 53, (R)-1-[7-[3-[4-Cyano-3-(trifluoromethyl)phenyl]-5,5-dimethyl-4-oxo-2-thioxoimidazolidin-1-yl]heptyl]pyrrolidine-4-carboxamide]	97%			7.31	
CC1(C)C(=O)N(c2ccc(C#N)c(C(F)(F)F)c2)C(=S)N1CCCCCCCCCN1CC[C@@H](O)C1 [Example 29, 4-[3-[9-[(R)-3-Hydroxypyrrolidin-1-yl]nonyl]-4,4-dimethyl-5-oxo-2-thioxoimidazolidin-1-yl]-2-(trifluoromethyl)benzonitrile]	99%			7.46	
CC1(C)C(=O)N(c2ccc(C#N)c(C(F)(F)F)c2)C(=S)N1CCCCCCN1CC[C@@H](C(N)=O)C1 [Example 52, (R)-1-[6-[3-[4-Cyano-3-(trifluoromethyl)phenyl]-5,5-dimethyl-4-oxo-2-thioxoimidazolidin-1-yl]hexyl]pyrrolidine-4-carboxamide]	100%	7.92	74%		AR Content at 10 μM (androgen receptor; [4]): 36%
CC1(C)C(=O)N(c2ccc(C#N)c(C(F)(F)F)c2)C(=S)N1CCCCCCCN1CCC[C@H]1CO [Example 9, 4-[3-[7-[(2S)-2-(Hydroxymethyl)pyrrolidin-1-yl]heptyl]-4,4-dimethyl-5-oxo-2-thioxoimidazolidin-1-yl]-2-(trifluoromethyl)benzonitrile]	92%	7.59	63%		
CC(=O)O[C@]1(C(C)=O)CC[C@H]2[C@@H]3C=C(Cl)C4=CC(=O)[C@@H]5C[C@@H]5[C@]4(C)[C@H]3CC[C@@]21C [CPA, 17-(acetyloxy)-6-chloro-1β,2β-dihydro-3′H -cyclopropa[1,2]pregna-1,4,6-triene-3,20-dione, reference compound]					% Inhibition of MSB Growth (seminal vesicles; 30 mg/kg s.c.): 85%
CC1(C)C(=O)N(c2ccc(C#N)c(C(F)(F)F)c2)C(=S)N1CCCCCCCCN1C2CCC1CC(O)C2 (centres unmarked) [Example 24, 4-[3-[8-(3-Hydroxy-8-azabicyclo[3.2.1]oct-8-yl)octyl]-4,4-dimethyl-5-oxo-2-thioxoimidazolidin-1-yl]-2-(trifluoromethyl)benzonitrile]	102%			7.89	
C[C@]1(O)CC[C@H]2[C@@H]3CCC4=CC(=O)CCC4=C3C=C[C@@]21C [Example R1881, 17β-hydroxy-17α-methylestra-4,9,11-trien-3-one, reference compound]					influence on AR content (in words) (androgen receptor; LNCaP cells): stabilizes the AR protein; AR Content (androgen receptor; LNCaP cells, R1881 at 10 nM (printed in the 10 μM column), % of DMSO control): 250%
CC1(C)C(=O)N(c2ccc(C#N)c(C(F)(F)F)c2)C(=S)N1CCCCCCCCN1CC[C@@H](C(N)=O)C1 [Example 54, (R)-1-[8-[3-[4-Cyano-3-(trifluoromethyl)phenyl]-5,5-dimethyl-4-oxo-2-thioxoimidazolidin-1-yl]octyl]pyrrolidine-4-carboxamide]	93%			7.19	
